Reference: patent US7807867B2, “Gene encoding protein involved in cytokinin synthesis” (Suntory Holdings Limited, priority 2001, dated 2010)

T1: AtIPT4 (Arabidopsis thaliana, UniProt Q9SB60)
T1 construct: made in house
T1 sequence (Q9SB60 1-318): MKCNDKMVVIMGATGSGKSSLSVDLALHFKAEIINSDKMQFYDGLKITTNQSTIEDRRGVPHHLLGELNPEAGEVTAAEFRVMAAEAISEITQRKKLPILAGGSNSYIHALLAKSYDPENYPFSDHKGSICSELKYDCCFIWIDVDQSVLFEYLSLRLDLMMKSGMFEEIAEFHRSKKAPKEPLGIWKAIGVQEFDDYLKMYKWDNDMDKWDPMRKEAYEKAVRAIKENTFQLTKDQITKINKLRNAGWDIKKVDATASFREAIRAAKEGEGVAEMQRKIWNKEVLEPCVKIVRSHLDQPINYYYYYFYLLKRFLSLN

T2: AtIPT1 (Arabidopsis thaliana, UniProt Q94ID3)
T2 construct: made in house
T2 sequence (Q94ID3 72-357): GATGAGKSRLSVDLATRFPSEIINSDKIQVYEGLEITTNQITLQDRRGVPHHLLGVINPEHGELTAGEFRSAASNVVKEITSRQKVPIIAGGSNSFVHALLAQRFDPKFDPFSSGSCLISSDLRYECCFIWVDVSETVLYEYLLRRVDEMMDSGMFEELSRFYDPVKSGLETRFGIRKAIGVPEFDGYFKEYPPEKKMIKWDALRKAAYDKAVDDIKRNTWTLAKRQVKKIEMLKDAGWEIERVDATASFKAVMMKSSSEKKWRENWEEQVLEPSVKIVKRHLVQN

B1: AtIPT4 (Arabidopsis thaliana) (protein)
chain: T1 sequence (Q9SB60 1-318)

Tests used:
AtIPT4 = target: T1, AtIPT4; assay: Enzyme activity of purified AtIPT4 protein (dimethylallyl transfer, Km); type: biochemical; conditions: for transfer of the dimethylallyl group of DMAPP to the substrate: 3H-labeled substrate at 0.25 μM, Ni-NTA bound AtIPT4 (Sample D), 30 minutes at 23° C.
Description: This was designated as Sample A. 400 μl of Ni-NTA agarose suspension (containing 110 μl of Ni-NTA agarose as precipitate, 30 mM NaH2PO4 (pH 8), […], 0.9 M NaCl, 7.5 mM β-mercaptoethanol, 0.5 mM PMSF and 30 μg/ml of leupeptin) were added to 800 μl of Sample A. This suspension was designated as Sample B. Sample B was then centrifuged to separate into supernatant (Sample C) and precipitate. Washing liquid (consisting of 20 mM NaH2PO4 (pH 8), […], 0.3 M NaCl, 5 mM β-mercaptoethanol, 0.5 mM PMSF and 10 μg/ml of leupeptin) was added to the precipitate, and the Ni-NTA agarose was washed four times using a procedure in which the precipitate was recovered by centrifugation. […] After adding 700 μl of ethyl acetate to this reaction liquid followed by stirring and centrifuging, 550 μl of the ethyl acetate layer were recovered followed by the addition of 500 μl of distilled water. After stirring and centrifugal separation, 350 μl of the ethyl acetate layer were recovered followed again by the addition of 500 μl of distilled water. After again stirring and separating by centrifugation, 0.5 ml of ACSII (Pharmacia) were added to 50 μl of the ethyl acetate layer followed by measurement of radioactivity with a liquid scintillation counter.

AtIPT1 = target: T2, AtIPT1; assay: Enzyme activity of AtIPT1 protein (dimethylallyl transfer); type: biochemical
tzs = tzs (Agrobacterium fabrum, UniProt P58758); conditions: read-out: Km of tzs for AMP; cited from earlier work
[1] = substrate: CC(C)=CCOP(=O)(O)OP(=O)(O)O; assay: purified protein, by the assay type; conditions: other: in the presence of 200 μM ATP; purified recombinant AtIPT4 protein; 23.0 °C

tzs, sequence (P58758 whole entry): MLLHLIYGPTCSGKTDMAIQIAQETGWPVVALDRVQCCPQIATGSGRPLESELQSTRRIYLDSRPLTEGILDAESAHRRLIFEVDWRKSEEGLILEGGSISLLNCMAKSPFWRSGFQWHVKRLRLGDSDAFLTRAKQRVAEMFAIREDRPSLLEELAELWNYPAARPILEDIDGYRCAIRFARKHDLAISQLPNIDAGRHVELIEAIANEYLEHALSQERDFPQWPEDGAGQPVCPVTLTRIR

Molecule | transfer of the dimethylallyl group of DMAPP to the substrate (AtIPT4) | Km (AtIPT4; in the presence of 0.4 mM DMAPP, purified recombinant AtIPT4 protein (2 ng/ml), read-out: Km for ATP) [µM] | transfer of a dimethylallyl group to the substrate (AtIPT1) | Km (tzs) [µM] | Km [1] [µM]
Nc1ncnc2c1ncn2[C@@H]1O[C@H](COP(=O)(O)OP(=O)(O)OP(=O)(O)O)[C@@H](O)[C@H]1O [ATP] | efficiently transferred | ~11.1 | activity that transfers a dimethylallyl group | – | –
Nc1ncnc2c1ncn2[C@@H]1O[C@H](COP(=O)(O)O)[C@@H](O)[C@H]1O [AMP, adenosine monophosphate] | – | – | – | 11.1 | –
Nc1ncnc2c1ncn2[C@@H]1O[C@H](COP(=O)(O)OP(=O)(O)O)[C@@H](O)[C@H]1O [ADP] | efficiently transferred | – | activity that transfers a dimethylallyl group | – | –
B1 | – | – | – | – | 6.5
